Reference: the NIST ThermoML archive (doi:10.1016/j.jct.2016.09.007)

Assay: xn = mol fraction of the nth substance listed
Settings: 93.2 kPa, Liquid; for mass density: Vibrating tube method; for speed of sound: Frequency=3 MHz, Sing-around technique in a fixed-path interferometer

CCCC(=O)[O-].CCCC[NH3+] [n-butylammonium butanoate] + CCCCCO
Settings	mass density, 303.15 K [kg/m3]	mass density, 308.15 K [kg/m3]	mass density, 313.15 K [kg/m3]	speed of sound, 308.15 K [m/s]	speed of sound, 313.15 K [m/s]
x1 = 0.0504	817.568	813.834	810.063	1250.4	1233.7
x1 = 0.1004	826.701	822.985	819.232	1257.6	1240.9
x1 = 0.1491	834.886	831.191	827.462	1264.2	1247.4
x1 = 0.2025	843.247	839.579	835.881	1271.2	1254.4
x1 = 0.2513	850.29	846.65	842.977	1277.5	1260.7
x1 = 0.3007	856.983	853.372	849.736	1283.7	1267
x1 = 0.3506	863.432	859.854	856.248	1290.2	1273.4
x1 = 0.4003	869.437	865.888	862.315	1296.4	1279.8
x1 = 0.4485	874.989	871.466	867.921	1302.4	1285.7
x1 = 0.4981	880.283	876.786	873.27	1308.3	1291.8
x1 = 0.549	885.516	882.044	878.557	1314.5	1298
x1 = 0.5979	890.251	886.802	883.336	1320.3	1303.8
x1 = 0.6483	894.993	891.566	888.123	1326.5	1310
x1 = 0.6971	899.338	895.935	892.514	1332.5	1315.9
x1 = 0.7444	903.359	899.982	896.583	1338.1	1321.6
x1 = 0.7997	907.929	904.583	901.213	1345	1328.3
x1 = 0.8466	911.586	908.265	904.921	1350.9	1334.1
x1 = 0.901	915.606	912.298	908.979	1358	1341
x1 = 0.9495	919.075	915.767	912.465	1364.4	1347
x1 = 1	922.217	918.88	915.567	1371.5	1353.6
